Experimental data: the supplement of paper PMC8960247
Structures can show the parent of a compound that is named as a salt. ± gives the standard error.

Tests used:
621-102 (TSC2-deficient) [1] = experiment: relative viability vs DMSO; higher = less cytotoxic; settings: serum: 10% FBS, 72 h
621-103 (TSC2-rescued) = experiment: as above; settings: serum: 10% FBS, 72 h
621-102 (TSC2-deficient) [2] = experiment: relative viability vs DMSO (fraction); higher = less cytotoxic; settings: serum: 0.1% FBS, 72 h

Compound | relative viability (621-102 (TSC2-deficient) [1]; 0.0001 µM) | relative viability (621-102 (TSC2-deficient) [1]; 0.001 µM) | relative viability (621-102 (TSC2-deficient) [1]; 0.01 µM) | relative viability (621-102 (TSC2-deficient) [1]; 0.1 µM) | relative viability (621-102 (TSC2-deficient) [1]; 1 µM) | relative viability (621-102 (TSC2-deficient) [1]; 10 µM) | relative viability (621-103 (TSC2-rescued); 0.0001 µM) | relative viability (621-103 (TSC2-rescued); 0.001 µM) | relative viability (621-103 (TSC2-rescued); 0.01 µM) | relative viability (621-103 (TSC2-rescued); 0.1 µM) | relative viability (621-103 (TSC2-rescued); 1 µM) | relative viability (621-103 (TSC2-rescued); 10 µM) | relative viability (621-102 (TSC2-deficient) [2]; 0.0128 nM) | relative viability (621-102 (TSC2-deficient) [2]; 0.064 nM) | relative viability (621-102 (TSC2-deficient) [2]; 0.32 nM) | relative viability (621-102 (TSC2-deficient) [2]; 1.6 nM) | relative viability (621-102 (TSC2-deficient) [2]; 8 nM) | relative viability (621-102 (TSC2-deficient) [2]; 40 nM) | relative viability (621-102 (TSC2-deficient) [2]; 200 nM) | relative viability (621-102 (TSC2-deficient) [2]; 1000 nM) | relative viability (621-102 (TSC2-deficient) [2]; 5000 nM)
C#Cc1cccc(Nc2ncnc3cc(OC)c(OCCCCCCC(=O)NO)cc23)c1 [CUDC-101] | 110.7 ± 0.61% | 108 ± 6.5% | 104 ± 1.9% | 95.14 ± 0.26% | 85.2 ± 2% | 30.6 ± 1.5% | 94.9 ± 1.2% | 99.73 ± 0.74% | 97.8 ± 1.4% | 93.79 ± 0.69% | 83.8 ± 2.3% | 2.28 ± 0.2% | 0.714 | 0.529 | 0.505 | 0.386 | 0.343 | 0.123 | 0.127 | 0.005 | 0.0015
COc1cccc2c1C(=O)c1c(O)c3c(c(O)c1C2=O)C[C@@](O)(C(=O)CO)C[C@@H]3O[C@H]1C[C@H](N)[C@H](O)[C@H](C)O1 [Doxorubicin (adriamycin)] | – | – | – | – | – | – | – | – | – | – | – | – | 0.343 | 0.2 | 0.0923 | 0.107 | 0.128 | 0.0761 | 0.0129 | 0.00359 | 0.00442
CN(C)C1CCN(C(=O)c2ccc(NC(=O)Nc3ccc(-c4nc(N5CCOCC5)nc(N5CCOCC5)n4)cc3)cc2)CC1 [PKI587] | – | – | – | – | – | – | – | – | – | – | – | – | 0.515 | 0.487 | 0.471 | 0.338 | 0.266 | 0.196 | 0.128 | 0.0333 | 0.0113
COC(=O)Nc1ccc(-c2nc(N3CCOCC3)c3cnn(C4CCN(C(=O)OC)CC4)c3n2)cc1 [WYE-354] | 89.9 ± 1.9% | 84.2 ± 1.1% | 79.5 ± 4.5% | 84.3 ± 5.7% | 49.3 ± 3.1% | 61.2 ± 3.3% | 102 ± 1.1% | 103.2 ± 0.11% | 102 ± 1.2% | 105.7 ± 1% | 68.1 ± 0.21% | 74.5 ± 2.2% | – | – | – | – | – | – | – | – | –
COC(=O)Nc1ccc(-c2nc(N3CCOCC3)c3cnn(C4CCN(Cc5cccnc5)CC4)c3n2)cc1 [WYE-687] | 97.311 ± 0.046% | 102 ± 3% | 99.7 ± 1.4% | 100 ± 2.7% | 59.1 ± 2.8% | 16.2 ± 0.8% | 113 ± 3.9% | 115.4 ± 1.1% | 113 ± 1.5% | 104 ± 2.3% | 55.5 ± 0.9% | 23.1 ± 0.089% | – | – | – | – | – | – | – | – | –
C=CC(=O)Nc1cccc(Oc2nc(Nc3ccc(N4CCN(C)CC4)cc3)ncc2Cl)c1 [WZ3146] | 112 ± 3.9% | 110 ± 3.5% | 106 ± 2.6% | 107 ± 3.3% | 97 ± 2.9% | 23.8 ± 5.1% | 103 ± 2% | 100.6 ± 0.42% | 100 ± 1.1% | 101 ± 1.8% | 79.4 ± 1.4% | 12.9 ± 0.067% | – | – | – | – | – | – | – | – | –
C=CC(=O)Nc1cccc(Oc2nc(Nc3ccc(N4CCN(C)CC4)cc3OC)ncc2Cl)c1 [WZ4002] | 110 ± 1.7% | 100 ± 6.1% | 104 ± 4.2% | 101 ± 3.6% | 99 ± 2% | 51.6 ± 2% | 100.2 ± 0.22% | 101 ± 1.6% | 100.1 ± 0.83% | 101.6 ± 0.99% | 101 ± 2.2% | 32.5 ± 1.5% | – | – | – | – | – | – | – | – | –
C=CC(=O)Nc1cccc(Sc2nc(Nc3ccc(N4CCN(C)CC4)cc3)ncc2Cl)c1 [WZ8040] | 98.7 ± 3.8% | 97.6 ± 2.1% | 99.3 ± 3.3% | 95.9 ± 1.6% | 98 ± 3.3% | 17.7 ± 4.6% | 100 ± 1.2% | 100 ± 1.6% | 99.8 ± 1.3% | 100 ± 1.5% | 100.6 ± 0.89% | 14.9 ± 0.36% | – | – | – | – | – | – | – | – | –
Oc1nc(-c2ccc(C(F)(F)F)cc2)nc2c1CSCC2 [XAV-939] | 116 ± 0.67% | 112 ± 2.7% | 116 ± 5.5% | 120 ± 1.9% | 119.9 ± 0.91% | 102.42 ± 0.045% | 99.56 ± 0.24% | 104 ± 2.7% | 102 ± 2.3% | 102 ± 2% | 102 ± 1.7% | 102 ± 1.7% | – | – | – | – | – | – | – | – | –
COc1cc2nccc(Oc3ccc(NC(=O)C4(C(=O)Nc5ccc(F)cc5)CC4)cc3)c2cc1OC [XL184] | 110.1 ± 0.14% | 97.1 ± 3.1% | 98.8 ± 3.1% | 107 ± 1.7% | 107 ± 2% | 99.4 ± 0.21% | 97.27 ± 0.56% | 98.1 ± 1.1% | 96.6 ± 1.1% | 98.8 ± 2.2% | 98.7 ± 1.5% | 81.9 ± 4.7% | – | – | – | – | – | – | – | – | –
COC(=O)[C@@H]1[C@H]2C[C@H]3c4[nH]c5ccccc5c4CCN3C[C@@H]2CC[C@@H]1O [Yohimbine HCl] | 106 ± 2.6% | 104 ± 1.2% | 104 ± 2.2% | 100.9 ± 0.15% | 100 ± 5.2% | 100 ± 2.6% | 104 ± 3.8% | 105 ± 3.1% | 105 ± 3.5% | 97 ± 3% | 99.4 ± 4.7% | 96.5 ± 3.8% | – | – | – | – | – | – | – | – | –
FC(F)c1nc2ccccc2n1-c1nc(N2CCOCC2)nc(N2CCOCC2)n1 [ZSTK474] | 88.8 ± 4.7% | 94.9 ± 1.6% | 89.77 ± 0.68% | 95.7 ± 2% | 91.2 ± 3.4% | 52.1 ± 1.8% | 101 ± 2.4% | 97 ± 3.6% | 103.8 ± 0.79% | 105.3 ± 0.49% | 96.3 ± 2.2% | 49.6 ± 1.3% | – | – | – | – | – | – | – | – | –
Nc1ccn([C@H]2CC[C@@H](CO)O2)c(=O)n1 [Zalcitabine] | 92.2 ± 0.98% | 99.9 ± 1.3% | 94.1 ± 2.3% | 103.3 ± 0.81% | 102 ± 3.1% | 93.26 ± 0.69% | 90.4 ± 5.7% | 95.48 ± 0.79% | 105 ± 1.1% | 105 ± 4.4% | 100.4 ± 0.83% | 102 ± 1.8% | – | – | – | – | – | – | – | – | –
COc1nc(C)cnc1NS(=O)(=O)c1cccnc1-c1ccc(-c2nnco2)cc1 [Zibotentan (ZD4054)] | 118 ± 2.6% | 100 ± 3.1% | 109.9 ± 0.58% | 114 ± 2.4% | 105 ± 3.6% | 120 ± 1.6% | 103.31 ± 0.00057% | 99.8 ± 1.5% | 100.2 ± 0.14% | 100.5 ± 0.75% | 101 ± 1% | 102.5 ± 0.2% | – | – | – | – | – | – | – | – | –
